Article PMC6234764, “First Insights Into Within Host Translocation of the Bacillus cereus Toxin Cereulide Using a Porcine Model” (Frontiers in Microbiology, 2018)
Like-named read-outs stand apart in the source and are kept apart here.

Legend:
[1] = Cereulide in blood, SIDA-MS; assay type: in vivo, pig
Procedure: (§1) A total of four experiments, each including four treated animals and one control pig, was performed to investigate the action of cereulide on piglets after oral intake of cereulide. Pigs were either challenged orally with a single dose (acute trials) or with daily over a period of 7 days (chronic trial) (see Table 1). One hour before cereulide toxin administration blood samples were taken by puncturing the anterior Vena cava and piglets were weighed for calculation of the cereulide concentration (t = 0 h). In the intoxication experiment with 150 μg kg^-1 blood samples were taken 68 h before the experiment to reduce the distress for the animals at the start day of the experiments. Blood-chemical, immunological, and histological analyses of selected organs as well as quantification of cereulide in organs, tissues, urine and feces were carried out as detailed below.
(§2) On body weight calculated amounts of cereulide, dissolved in ethanol, were mixed with milk (UHT milk; 3.5% fat), and fed to four piglets. Control piglets were fed with milk supplemented with similar ethanol concentrations as the experimental piglets. The experiment started after the uptake of the whole milk cereulide mixture. The milk was checked for bacterial contamination prior to the experiment.
(§3) After oral administration of cereulide, piglets were monitored for unusual behavior and examined physically with special respect on rectal body temperature as well as pulse and respiration rate, every 2–3 h. Blood samples were taken from the Vena cava cranialis. Urine and feces were collected during the whole experiment and stored at -80°C. After the experiment pigs were anaesthetized by intramuscular injection of a bolus of ketamine (10 mg kg^-1) and azaperone (1.3 mg kg^-1). When sedation was deep enough cerebrospinal fluid (liquor) was taken by lumbar puncture. Finally, pigs were euthanized by intracardial injection of T61®. Animals were then necropsied and parts of the following organs, tissues or body fluids were taken for SIDA-MS analysis: liver, lung, heart, kidney, brain, spleen, small and large intestine, lymph nodes, gastric as well as intestinal contents, skeletal muscle, and abdominal and subcutaneous fat. Samples of liver, lung, heart, kidney, brain, spleen, small, and large intestine were collected for histological analysis.
Collected blood samples, urine, feces, tissue and organs were freeze dried and stored at -80°C until analysis. Before extraction, liquid nitrogen was added to frozen samples and they were crushed to a powder using a mortar. […] Finally, samples were membrane filtrated (0.2 μm; PTFE membrane; Phenomenex, Aschaffenburg, Germany) and analyzed by means of LC-MS/MS as described previously ([Bauer et al., 2010]). […]

[2] = ref Andersson et al., 2007; cited from earlier work
Procedure: Due to the lipophilic character of cereulide (log Kow 5.96) ([Andersson et al., 2007]), it could be assumed that part of the ingested cereulide adheres to digested food and is rapidly excreted via feces. Indeed, as shown in our porcine model, within the first 48 h 10–15% of the cereulide toxin orally administered is shed with feces. Cereulide was already detected in feces a few hours after toxin administration, which allows an early, non-invasive identification of cereulide intoxications. Even in case of the low dose of cereulide used in the chronic trial (10 μg cereulide kg^-1) cereulide coul ...

[3] = ref Ehling-Schulz et al., 2004, Rajkovic et al., 2008, cited from earlier work
Text: The reported incidence of foodborne outbreaks caused by Bacillus toxins is steadily increasing worldwide throughout the last decade. For instance, in the European Union about 600–700 confirmed cases of foodborne outbreaks linked to B. cereus toxins are annually reported ([Messelhäußer and Ehling-Schulz, 2018]). Due to the rise of reports on severe intoxications, the Bacillus cereus toxin cereulide is of special concern. Cereulide is a small dodecadepsipeptide toxin that evokes emesis a short time after ingestion of contaminated food ([Agata et al., 1995]). Usally the disease is self limiting b ...

[4] = Cereulide in organs and tissues, SIDA-MS; assay type: in vivo, pig; conditions: for tissue level at time at 48 h / tissue level at time at 168 h: pig; for tissue level at time at 168 h: 10 ug/kg
Procedure: as §1, §2, §3
Collected blood samples, urine, feces, tissue and organs were freeze dried and stored at -80°C until analysis. Before extraction, liquid nitrogen was added to frozen samples and they were crushed to a powder using a mortar. Ten microgram ^13C6-cereulide (for organs and feces) or 5 μg ^13C6-cereulide (for urine and blood) was added and samples were incubated on a rocking table for 2 h. Samples were solved in ethanol (volume depending on weight 10–40 mL), incubated 14 h, and the supernatants were collected by centrifugation (RT, 8500 g, 10 min). For pre-purification the ethanolic extract was 1:5 diluted with water and applied onto the top of a methanol activated C18-SPE cartridge (6 mL; 1 g; Strata C18-E; Phenomenex, Aschaffenburg, Germany). The cartridge was washed with 6 mL water followed by methanol/water (4 mL; 70/30, v/v) and target compounds were eluted with ethanol (2.5 mL). Finally, samples were membrane filtrated (0.2 μm; PTFE membrane; Phenomenex, Aschaffenburg, Germany) and analyzed by means of LC-MS/MS as described previously ([Bauer et al., 2010]). In brief, LC-MS/MS analysis was performed using an Agilent 1200 HPLC-system connected to the API 4000QTrap LC-MS/MS (Applied Biosystems, Darmstadt, Germany) running in the positive electrospray ionization (ESI^+, +5500 V) mode. Zero grade air served as nebulizer gas (45 psi) and turbo gas (425°C) for solvent drying (55 psi), nitrogen was used as curtain (20 psi) and collision gas (8.7 × 10^-7 psi), respectively. Both quadrapoles were set at unit resolution. […]

[5] = daily oral dose 10 μg kg^-1 for 7 days, SIDA-MS
[6] = daily oral dose 10 μg kg^-1 over 7 days
[7] = single oral dose 30 μg kg^-1, necropsy after 48 h, SIDA-MS
[8] = single oral dose 150 μg kg^-1, necropsy after 48 h, SIDA-MS

CC(C)C[C@H]1OC(=O)[C@H](C(C)C)NC(=O)[C@H](C(C)C)OC(=O)[C@@H](C)NC(=O)[C@@H](CC(C)C)OC(=O)[C@H](C(C)C)NC(=O)[C@H](C(C)C)OC(=O)[C@@H](C)NC(=O)[C@@H](CC(C)C)OC(=O)[C@H](C(C)C)NC(=O)[C@H](C(C)C)OC(=O)[C@@H](C)NC1=O [cereulide]
Detectability of cereulide in blood ([1]; single oral dose 150 μg kg^-1, after 24–48 h): detectable in three out of four pigs
Highest concentration of cereulide in the blood ([1]; single oral dose 150 μg kg^-1, one animal): 45 ng cereulide mL^-1
Time of first detection in blood ([1]; single oral dose 150 μg kg^-1, pig with highest blood levels): 8 h
Maximum cereulide in blood after 24 h ([1]; single oral dose 150 μg kg^-1, pig with lowest abdominal fat level, 24 h): 45 ng cereulide mL^-1
log Kow [2]: 5.96
Stability to enzymatic cleavage ([3]; gastro-intestinal passage): resistance to enzymatic cleavage
Temperature and pH stability [3]: high temperature and pH stability
Average concentration in content of large intestine, acute 150 μg kg^-1 versus chronic 10 μg kg^-1 daily ([4]; acute high dose over chronic trial): about 15 fold
Amounts of cereulide in muscle, chronic trial versus acute high dose ([4]; chronic 10 μg kg^-1 daily exceeds acute 150 μg kg^-1): threefold
Cereulide concentration in content of large intestine, range [4, 5]: 2.04 to 6.78 ng/g
Cereulide concentration in kidney, range [4, 5]: 0.14 to 0.37 ng/g
Cereulide concentration in large intestine, range [4, 5]: 1.16 to 5.05 ng/g
Cereulide concentration in liver, range [4, 5]: 0.06 to 0.24 ng/g
Cereulide concentration in lymph nodes, range [4, 5]: 0.01 to 0.14 ng/g
Cereulide concentration in muscle, range [4, 5]: 0 to 2.23 ng/g
Cereulide concentration in spleen, range [4, 5]: 0.10 to 0.21 ng/g
Cereulide concentration in subcutaneous fat, range [4, 5]: 0 to 0.08 ng/g
Cereulide in large intestine and large intestinal contents, maximum [4, 6]: up to 6.8 ng g^-1
Detectability of cereulide in the small intestine [4, 6]: not detectable
Passage of the blood-brain-barrier (BBB) ([4]; detection of cereulide in brain samples after oral challenge): can cross the BBB
tissue level at time at 48 h ([4]; abdominal fat, 150 ug/kg, single oral dose 150 μg kg^-1, necropsy after 48 h, SIDA-MS, read-out: Cereulide concentration in abdominal fat, average): 7.88 ± 4.17 ng/g
tissue level at time at 48 h ([4]; brain, 150 ug/kg, single oral dose 150 μg kg^-1, necropsy after 48 h, SIDA-MS, read-out: Cereulide concentration in brain, average): 0.73 ± 0.49 ng/g
tissue level at time at 168 h ([4]; content of large intestine, daily oral dose 10 μg kg^-1 for 7 days, SIDA-MS, read-out: Cereulide concentration in content of large intestine, average): 4.41 ± 2.37 ng/g
tissue level at time at 48 h ([4]; content of large intestine, 30 ug/kg, single oral dose 30 μg kg^-1, necropsy after 48 h, SIDA-MS, read-out: Cereulide concentration in content of large intestine, average): 0.07 ± 0.03 ng/g
tissue level at time at 48 h ([4]; content of large intestine, 150 ug/kg, single oral dose 150 μg kg^-1, necropsy after 48 h, SIDA-MS, read-out: Cereulide concentration in content of large intestine, average): 67.9 ± 50.8 ng/g
tissue level at time at 48 h ([4]; content of small intestine, 150 ug/kg, single oral dose 150 μg kg^-1, necropsy after 48 h, SIDA-MS, read-out: Cereulide concentration in content of small intestine, average): 0.68 ± 0.53 ng/g
tissue level at time at 168 h ([4]; kidney, daily oral dose 10 μg kg^-1 for 7 days, SIDA-MS, read-out: Cereulide concentration in kidney, average): 0.25 ± 0.12 ng/g
tissue level at time at 48 h ([4]; kidney, 150 ug/kg, single oral dose 150 μg kg^-1, necropsy after 48 h, SIDA-MS, read-out: Cereulide concentration in kidney, average): 0.21 ± 0.21 ng/g
tissue level at time at 168 h ([4]; large intestine, daily oral dose 10 μg kg^-1 for 7 days, SIDA-MS, read-out: Cereulide concentration in large intestine, average): 3.11 ± 1.95 ng/g
tissue level at time at 48 h ([4]; large intestine, 30 ug/kg, single oral dose 30 μg kg^-1, necropsy after 48 h, SIDA-MS, read-out: Cereulide concentration in large intestine, average): 0.07 ± 0.06 ng/g
tissue level at time at 48 h ([4]; large intestine, 150 ug/kg, single oral dose 150 μg kg^-1, necropsy after 48 h, SIDA-MS, read-out: Cereulide concentration in large intestine, average): 30.5 ± 14.3 ng/g
tissue level at time at 168 h ([4]; liver, daily oral dose 10 μg kg^-1 for 7 days, SIDA-MS, read-out: Cereulide concentration in liver, average): 0.14 ± 0.08 ng/g
tissue level at time at 48 h ([4]; liver, 150 ug/kg, single oral dose 150 μg kg^-1, necropsy after 48 h, SIDA-MS, read-out: Cereulide concentration in liver, average): 0.37 ± 0.07 ng/g
tissue level at time at 168 h ([4]; lymph nodes, daily oral dose 10 μg kg^-1 for 7 days, SIDA-MS, read-out: Cereulide concentration in lymph nodes, average): 0.07 ± 0.07 ng/g
tissue level at time at 48 h ([4]; lymph nodes, 150 ug/kg, single oral dose 150 μg kg^-1, necropsy after 48 h, SIDA-MS, read-out: Cereulide concentration in lymph nodes, average): 2.82 ± 1.71 ng/g
tissue level at time at 168 h ([4]; muscle, daily oral dose 10 μg kg^-1 for 7 days, SIDA-MS, read-out: Cereulide concentration in muscle, average): 1.12 ± 1.12 ng/g
tissue level at time at 48 h ([4]; muscle, 150 ug/kg, single oral dose 150 μg kg^-1, necropsy after 48 h, SIDA-MS, read-out: Cereulide concentration in muscle, average): 0.39 ± 0.32 ng/g
tissue level at time at 48 h ([4]; small intestine, 150 ug/kg, single oral dose 150 μg kg^-1, necropsy after 48 h, SIDA-MS, read-out: Cereulide concentration in small intestine, average): 1.34 ± 0.88 ng/g
tissue level at time at 168 h ([4]; spleen, daily oral dose 10 μg kg^-1 for 7 days, SIDA-MS, read-out: Cereulide concentration in spleen, average): 0.15 ± 0.06 ng/g
tissue level at time at 48 h ([4]; spleen, 150 ug/kg, single oral dose 150 μg kg^-1, necropsy after 48 h, SIDA-MS, read-out: Cereulide concentration in spleen, average): 2.26 ± 1.75 ng/g
tissue level at time at 48 h ([4]; stomach, 150 ug/kg, single oral dose 150 μg kg^-1, necropsy after 48 h, SIDA-MS, read-out: Cereulide concentration in stomach, average): 2 ± 3.2 ng/g
tissue level at time at 168 h ([4]; subcutaneous fat, daily oral dose 10 μg kg^-1 for 7 days, SIDA-MS, read-out: Cereulide concentration in subcutaneous fat, average): 0.04 ± 0.04 ng/g
tissue level at time at 48 h ([4]; subcutaneous fat, 150 ug/kg, single oral dose 150 μg kg^-1, necropsy after 48 h, SIDA-MS, read-out: Cereulide concentration in subcutaneous fat, average): 0.74 ± 0.51 ng/g
Cereulide concentration in content of large intestine, range [4, 7]: 0 to 0.09 ng/g
Cereulide concentration in large intestine, range [4, 7]: 0 to 0.13 ng/g
Cereulide in content of the large intestine, maximum ([4]; single oral dose 150 μg kg^-1): up to 140 ng g^-1
Cereulide in content of the small intestine, maximum ([4]; single oral dose 150 μg kg^-1): ≤ 1 ng/g
Cereulide in the brain, animal with highest blood concentration ([4]; single oral dose 150 μg kg^-1): 1.4 ng cereulide g^-1
Cereulide in fat tissue, one animal ([4]; single oral dose 150 μg kg^-1, animal with highest blood concentration): 2 ng cereulide g^-1 fat tissue
Cereulide concentration in abdominal fat, range [4, 8]: 2.17 to 12.02 ng/g
Cereulide concentration in brain, range [4, 8]: 0.15 to 1.41 ng/g
Cereulide concentration in content of large intestine, range [4, 8]: 5.84 to 140.99 ng/g
Cereulide concentration in content of small intestine, range [4, 8]: 0 to 1.06 ng/g
Cereulide concentration in kidney, range [4, 8]: 0 to 0.43 ng/g
Cereulide concentration in large intestine, range [4, 8]: 7.14 to 45.75 ng/g
Cereulide concentration in liver, range [4, 8]: 0.25 to 0.41 ng/g
Cereulide concentration in lymph nodes, range [4, 8]: 0 to 4.50 ng/g
Cereulide concentration in muscle, range [4, 8]: 0 to 0.76 ng/g
Cereulide concentration in small intestine, range [4, 8]: 0.34 to 2.49 ng/g
Cereulide concentration in spleen, range [4, 8]: 1.15 to 5.29 ng/g
Cereulide concentration in stomach, range [4, 8]: 0.11 to 7.54 ng/g
Cereulide concentration in subcutaneous fat, range [4, 8]: 0.35 to 1.37 ng/g
Cereulide in fat tissues, maximum ([4]; single oral dose 150 μg kg^-1, two out of four animals): up to 12 ng cereulide g^-1
